Key:
[1] = Pharmacokinetics of esketamine nasal spray, data assembled from 14 Phase 1 studies (Example 10); conditions: human, plasma, inhaled or intranasal
Description: The data herein was assembled from 14 Phase 1 studies; each Phase 1 study was performed similarly to the study outlined in Example 9 in which the PK of esketamine was assessed.

[2] = system: subjects with MDD at imminent risk for suicide; test: SIBAT Clinical Global Judgment of Suicide Risk, Study […]2001; assay type: in vivo, human; conditions: 84 mg
Source text: • a. Changes from baseline to Day 2 and Day 25 for the MADRS total score • b. Changes from baseline to Day 1 4-hours postdose, Day 2 and Day 25 for the MADRS Suicide Item • c. Changes from baseline to Day 1 4-hours postdose, Day 2, and Day 25 for the clinical global judgment of suicide risk from the Suicide Ideation and Behavior Assessment Tool (SIBAT) • d. Sustained response (Onset of Clinical Response) defined as at least 50% reduction from baseline in MADRS total score with onset on Day 1 that is maintained through the end of the double-blind phase (Day 25) • e. Changes from baseline to Day 1 4-hours postdose, Day 2, and Day 25 for the Beck Scale for Suicidal Ideation (BSS) • f. Changes from baseline to Day 1 4-hours postdose and Day 25 for the Beck Hopelessness Scale
The clinical global judgment of suicide risk (Module 8) summarizes clinician overall judgment of suicide risk as derived from information gathered from the full SIBAT tool. It operates like numerous other CGI-severity scales that have been used in other psychiatric studies. Change in the clinical global judgment of suicide risk is designed to directly identify clinical meaningful changes in suicidal ideation and to permit classification of suicide risk.
The analysis of the change in SIBAT score was based on an ANCOVA model on ranks of change in SIBAT with treatment, antidepressant therapy, and analysis center as factors, and baseline value (unranked) as a covariate. There was a significant difference (two-sided […]) between the two treatment groups when comparing the mean rank of change from baseline at Day 1: 4-hours postdose in favor of esketamine 84 mg See, Table 58. See, FIG. 39. […] This difference was not evident at the Day 25 DB endpoint. See, FIG. 40, which is based on LOCF data and analyzed using Cochran-Mantel-Haenszel test controlling for analysis center and antidepressant therapy.

adult subjects with TRD [3] = conditions: in vivo
Description: Blood pressure and pulse/heart rate measurements were assessed supine with a completely automated device. Manual techniques were used only if an automated device is not available. Blood pressure and pulse/heart rate measurements were preceded by at least 5 minutes of rest in a quiet setting without distractions (e.g., television, cell phones).
Descriptive statistics of temperature, pulse/heart rate, respiratory rate, pulse oximetry, and blood pressure (systolic and diastolic) (supine) values and changes from baseline were summarized at each scheduled time point. The percentage of subjects with values beyond clinically important limits were summarized.

adult subjects with TRD [4] = conditions: human, in vivo, other: intranasal
Description: The MOAA/S was used to measure treatment-emergent sedation, with correlation to levels of sedation defined by the American Society of Anesthesiologists (ASA) continuum. The MOAA/S scores range from 0=no response to painful stimulus (corresponds to ASA continuum for general anesthesia) to 5=readily responds to name spoken in normal tone (awake; corresponds to ASA continuum for minimal sedation).
On each intranasal dosing day, the MOAA/S was performed every 15 minutes from pre-dose to t=+1.5 hours post-dose. If the score was ≤3 at any time during the 1.5 hours post-dose interval, the MOAA/S was performed every 5 minutes until a score of 4 is reached (at which point a frequency of every 15 minutes can be resumed until t=+1.5 hours post dose). […] For subjects with a score of 4, the assessment was repeated every 15 minutes. […]
The Modified Observer's Assessment of Alertness/Sedation (MOAA/S) was used to measure treatment-emergent sedation with correlation to levels of sedation defined by the American Society of Anesthesiologists (ASA) continuum. The MOAA/S scores ranged from 0 (No response to painful stimulus; corresponds to ASA continuum for general anesthesia) to 5 (Readily responds to name spoken in normal tone [awake]; corresponding to ASA continuum for minimal sedation).

[5] = system: patients with treatment-resistant depression (TRD); test: GAD-7, phase 2 dose-response study in TRD; assay type: in vivo, human
Description: Overall illness severity was assessed on the Clinical Global Impression of Severity (CGI-S) scale (Guy, “ECDEU Assessment Manual for Psychopharmacology-Revised (DHEW Publ No ADM 76-338)”, Rockville, Md.: U.S. Department of Health, Education, and Welfare, Public Health Service, Alcohol, Drug Abuse, and Mental Health Administration, NIMH Psychopharmacology Research Branch, Division of Extramural Research Programs; 1976, pp 218-222). Participants assessed their severity of anxiety on the Generalized Anxiety Disorder 7-item (GADS-7) Scale (See, Tables 157 and 158). See, Spitzer, “A brief measure for assessing generalized anxiety disorder—the GAD-7”, Arch. Intern. Med., 2006, 166(10):1092-1097.

glutamate NMDA receptor = conditions: cited from earlier work
patients = test: Adverse reactions across clinical studies as described in product labeling; assay type: in vivo, human
Source text: In the product labeling, patients will be informed that dissociative/perceptual changes (including distortion of time and space and illusions), derealization and depersonalization are common psychological effects of esketamine. Patients will be further advised that • These adverse reactions were reported as transient and self-limited and occurred on the day of dosing. • Dissociation was reported as severe in intensity at the incidence of less than 4% across studies, • Dissociation symptoms typically resolved by 1.5 hours after dosing and the severity tended to reduce over time with repeated treatments. • Dissociative and perception disturbances may decrease after a few treatment sessions.
The product label will include a brief description of the adverse reactions of sedation and somnolence reported in clinical studies with esketamine: • Events of sedation and somnolence were primarily mild or moderate in severity, occurred on the day of dosing and resolved spontaneously the same day. • The sedative effects typically resolved by 1.5 hours after dosing. • Rates of somnolence were relatively stable over time during long-term treatment. • In the cases of sedation, no symptoms of respiratory distress were observed, and hemodynamic parameters (including vital signs and oxygen saturation) remained within normal ranges.

[6] = system: subjects with MDD at imminent risk for suicide; conditions: human, in vivo, other: intranasal, 84 mg
Description: The CADSS was measured prior to the start of each dose, at 40 minutes, 2 hours, and 4 hours postdose.

Compound: CN[C@]1(c2ccccc2Cl)CCCCC1=O [esketamine, (S)-2-(2-chlorophenyl)-2-(methylamino)cyclohexanone]
- AUC(0-t) ([1]; 28 mg): 128 to 183 ng·h/mL
- Cmax ([1]; 28 mg): 49.7 to 70.5 ng/mL
- half-life ([1]; 28 mg, Terminal t1/2, young adult subjects, single dose nasal spray 28 mg, range across studies): 435 to 990 min
- Tmax ([1]; 28 mg, Tmax, young adult subjects, single dose nasal spray 28 mg, range of median values): 19.8 to 40.2 min
- Tmax ([1]; 28 mg, tmax typically observed after the first nasal spray, 28 mg): 20 to 40 min
- AUC(0-t) ([1]; 56 mg): 216 to 317 ng·h/mL
- Cmax ([1]; 56 mg): 71.8 to 117 ng/mL
- half-life ([1]; 56 mg, Terminal t1/2, young adult subjects, single dose nasal spray 56 mg, range across studies): 408 to 590 min
- Tmax ([1]; 56 mg, Tmax, young adult subjects, single dose nasal spray 56 mg, range of median values): 30 to 46.2 min
- Tmax ([1]; 56 mg, tmax typically observed after the first nasal spray, 56 mg): 30 to 45 min
- AUC(0-t) ([1]; 84 mg): 310 to 489 ng·h/mL
- Cmax ([1]; 84 mg): 95 to 164 ng/mL
- half-life ([1]; 84 mg, Terminal t1/2, young adult subjects, single dose nasal spray 84 mg, range across studies): 396 to 720 min
- Tmax ([1]; 84 mg, Tmax, young adult subjects, single dose nasal spray 84 mg, range of median values): 31.8 to 49.8 min
- Tmax ([1]; 84 mg, tmax typically observed after the first nasal spray, 84 mg): 30 to 50 min
- half-life ([1]; Mean terminal t1/2, range, nasal administration): 420 to 720 min
- half-life ([1]; Median terminal t1/2, nasal administration): 642 min
- SIBAT Clinical Global Judgment of Suicide Risk, change from baseline, median (range) ([2]; Day 1 (DB): 4 H, LOCF, N 33): 0.0 (−6; 1)
- SIBAT Clinical Global Judgment of Suicide Risk, median (range) ([2]; Day 1 (DB): 4 H, LOCF, N 33): 5.0 (0; 6)
- SIBAT Clinical Global Judgment of Suicide Risk, change from baseline, median (range) ([2]; Day 2(DB) LOCF, N 35): −1.0 (−6; 1)
- SIBAT Clinical Global Judgment of Suicide Risk, median (range) ([2]; Day 2(DB) LOCF, N 35): 5.0 (0; 6)
- Subjects with a SIBAT score of 5 or 6 ([2]; […]2001, Day 1: 4-hour postdose): 63.6%
- Maximum mean increase in diastolic BP (across all dosing days) (adult subjects with TRD [3]): 8.1
- Transient blood pressure increases: returned to normal range at (adult subjects with TRD [3]): 90 min
- Transient blood pressure increases: time of peak post dose (adult subjects with TRD [3]): approximately 40 minutes
- Sedation (MOAA/S) resolved by (postdose) (adult subjects with TRD [4]): ≤ 1.5 h
- GAD-7 LS mean difference from placebo (SE) ([5]; Period 1, 28 mg): −0.21 (1.461)
- GAD-7 change from baseline to end point, LS mean (SE) ([5]; Period 1, 28 mg): −1.5 (1.34)
- GAD-7 LS mean difference from placebo (SE) ([5]; Period 1, 56 mg): −1.40 (1.478)
- GAD-7 change from baseline to end point, LS mean (SE) ([5]; Period 1, 56 mg): −3.1 (1.34)
- GAD-7 LS mean difference from placebo (SE) ([5]; Period 1, 84 mg): −3.44 (1.414)
- GAD-7 change from baseline to end point, LS mean (SE) ([5]; Period 1, 84 mg): −5.1 (1.30)
- GAD-7 LS mean difference from placebo (SE) ([5]; Period 2, 28 mg): −2.02 (1.089)
- GAD-7 change from baseline to end point, LS mean (SE) ([5]; Period 2, 28 mg): −1.6 (0.87)
- GAD-7 LS mean difference from placebo (SE) ([5]; Period 2, 56 mg): 0.60 (1.033)
- GAD-7 change from baseline to end point, LS mean (SE) ([5]; Period 2, 56 mg): 1.0 (0.98)
- GAD-7 LS mean difference from placebo (SE) ([5]; Period 2, 84 mg): −1.25 (1.205)
- GAD-7 change from baseline to end point, LS mean (SE) ([5]; Period 2, 84 mg): −0.9 (1.02)
- Affinity for the glutamate NMDA receptor in vitro relative to R-ketamine (glutamate NMDA receptor): 3 to 4 fold
- Dissociation symptoms typically resolved by (after dosing) (patients; across studies): ≤ 1.5 h
- Incidence of dissociation reported as severe in intensity (patients; across studies): less than 4%
- Sedative effects typically resolved by (after dosing) (patients; clinical studies): ≤ 1.5 h
- CADSS dissociative and perceptual change symptoms resolved by (postdose) [6]: ≤ 2 h

— patent publication US20230121313A1 (priority 2019, published 2023)
